In assay [1] the target is p38a activated, mitogen-activated protein kinase-activated protein kinase 2 (MAPKAP-K2 or MK-2) enzyme (Homo sapiens (Human), UniProt P49137). Put plainly: MK2 Omnia continuous-read kinase assay for compound potency. The format is biochemical. The note with it: [MK-2]=0.4 nM, [ATP]=1.0 mM, [ST3-Sox]=10 μM. In outline:
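Continuous Omnia fluorescence read (λex360/λem485) every 71 s after starting with 0.4 nM MK-2, with 1.0 mM ATP (appKM 8-10 μM) and 10 μM ST3-Sox substrate.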

Assay [2] has as its target T1, MK2 (Homo sapiens (Human), UniProt P49137). Put plainly: MK2 cellular assay (Hsp27 phosphorylation in Thp-1 cells). Format: cell-based. The note with it: differentiated Thp-1 cells, compound 1 hour, 50 ng/ml LPS 15 minutes, phosphorylation of Hsp27; read-out: MK2EC50. On the procedure: Compounds were assayed in Thp-1 human acute monocytic leukemia cells to measure inhibition of MK2 activity. Thp-1 were grown in suspension in T225 flasks. Two days prior to assay, Thp-1 cells were spun down, counted and plated at 1×10^6 cells per well of a 12 well plate in complete media containing 10 ng/ml PMA (phorbol myristate acetate) to differentiate the cells. On day of assay, cells were washed with complete media, and compound was added to differentiated Thp-1 cells for 1 hour. Cells were washed again, and complete media containing 50 ng/ml LPS (lipopolysaccharide) was added. After 15 minutes, cells were washed once with PBS and lysed on ice with BioRad Bioplex lysis buffer. 20 μg total protein from lysates were loaded on gel and blots were probed for phosphorylation of the MK2 substrate Hsp27. Dose response inhibition of MK2 signaling in differentiated Thp-1 cells was used to determine the EC50 for compounds reported in Table A in the column entitled “MK2 EC50.”

The target in assay [3] is T1, MK2. Put plainly: MK2 modification assessment by whole protein mass spectrometry. The note with it: intact MK2, 60 min, 10-fold excess of compound to protein. Format: binding. In outline:
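MK2 treated with compound is analysed intact by MALDI-TOF after C4 cleanup in sinapinic acid matrix. Percent modification is the centroid mass shift against control MK2 divided by compound mass.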

The structures appear in SMILES notation.

T1 sequence (P49137 whole entry): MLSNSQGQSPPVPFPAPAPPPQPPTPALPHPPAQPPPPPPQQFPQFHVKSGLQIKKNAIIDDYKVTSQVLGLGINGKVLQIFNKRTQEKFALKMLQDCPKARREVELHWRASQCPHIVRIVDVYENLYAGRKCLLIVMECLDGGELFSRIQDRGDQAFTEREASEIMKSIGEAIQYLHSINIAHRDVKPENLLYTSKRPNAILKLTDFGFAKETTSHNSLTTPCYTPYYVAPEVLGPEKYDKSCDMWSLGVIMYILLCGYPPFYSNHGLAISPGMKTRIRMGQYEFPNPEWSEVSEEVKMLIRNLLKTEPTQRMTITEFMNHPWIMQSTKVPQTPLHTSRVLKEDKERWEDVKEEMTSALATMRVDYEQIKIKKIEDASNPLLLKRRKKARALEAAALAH
Chain of p38a activated, mitogen-activated protein kinase-activated protein kinase 2 (MAPKAP-K2 or MK-2) enzyme (P49137 whole entry): as above

A word on the IC50: it is the concentration at which inhibition is half-maximal. As to `C=CC(=O)N1CC(C)(C)Oc2ccc(NC(=O)c3ccc4cc5n(c4c3)C3(CCC3)CNC5=O)cc21` [Compound V-51, N-(4-acryloyl-2,2-dimethyl-3,4-dihydro-2H-benzo[b][1,4]oxazin-6-yl)-1′-oxo-2′,3′-dihydro-1′H-spiro[cyclobutane-1,4′-pyrazino [1,2-a]indole]-7′-carboxamide], the 50% inhibitory concentration (IC50) in assay [1] was < 100 nM. Besides, the EC50 at MK2 [2] was in the range of 101 to 500 nM. At MK2 [3], the “MK2 Mass Mod” value is recorded as “E (mass modification of ≥70%)”.

As to `C=CC(=O)N1CC(C)Oc2ccc(-c3cc4c(ccc5c6c([nH]c54)CCC6=O)cn3)cc21` (stereo not drawn) [II-e-17, 2-(4-acryloyl-2-methyl-3,4-dihydro-2H-benzo[b][1,4]oxazin-6-yl)-8,9-dihydrocyclopenta[4,5]pyrrolo[2,3-f]isoquinolin-7(10H)-one], in assay [1], the half-inhibitory concentration (IC50) was < 100 nM. For the same molecule, the EC50 at MK2 [2] fell in the range of 501 to 999 nM. In addition, the “MK2 Mass Mod” value on MK2 [3] is “E (mass modification of ≥70%)”.

With `C=CC(=O)Nc1cc(-c2nccc(-c3cc4c([nH]3)C3(CCCNC3)CNC4=O)n2)ccc1OCCOC` (racemic) [Compound I-7, N-(2-(2-methoxyethoxy)-5-(4-(4′-oxo-1′,4′,5′,6′-tetrahydrospiro[piperidine-3,7′-pyrrolo[3,2-c]pyridin]-2′-yl)pyrimidin-2-yl)phenyl)acrylamide], the IC50 in assay [1] was < 100 nM. Further, on MK2 [2], the EC50 fell in the range of 501 to 999 nM. Moreover, the “MK2 Mass Mod” value at MK2 [3] is listed as “E (mass modification of ≥70%)”.

With `C=CC(=O)N1CCc2ccc(NC(=O)c3ccc4cc5n(c4c3)C3(CCC3)CNC5=O)cc21` [Compound V-45, N-(1-acryloylindolin-6-yl)-1′-oxo-2′,3′-dihydro-1′H-spiro[cyclobutane-1,4′-pyrazino[1,2-a]indole]-7′-carboxamide], the 50% inhibitory concentration (IC50) in assay [1] was < 100 nM. For the same molecule, the EC50 at MK2 [2] was 101 to 500 nM. Moreover, at MK2 [3], the “MK2 Mass Mod” value is “E (mass modification of ≥70%)”.

For the molecule `C=CC(=O)Nc1cc(-c2cc3c(cn2)CCc2c-3[nH]c3c2C(=O)NCC3)ccc1OC` [II-2, N-(2-methoxy-5-(7-oxo-6,7,8,9,10,11-hexahydro-5H-pyrido[3′,4′:4,5]pyrrolo[2,3-f]isoquinolin-2-yl)phenyl)acrylamide], the IC50 in assay [1] is < 100 nM. Besides, the EC50 at MK2 [2] was < 100 nM. Besides, the “MK2 Mass Mod” value at MK2 [3] is “E (mass modification of ≥70%)”.

`C=CC(=O)Nc1cc(-c2cc3c(cn2)CCc2c-3[nH]c3c2C(=O)NCC3)ccc1F` [II-3, N-(2-fluoro-5-(7-oxo-6,7,8,9,10,11-hexahydro-5H-pyrido[3′,4′:4,5]pyrrolo[2,3-f]isoquinolin-2-yl)phenyl)acrylamide]: in assay [1], the concentration for half-maximal inhibition (IC50) was < 100 nM. At MK2 [2], the EC50 was < 100 nM. The “MK2 Mass Mod” value at MK2 [3] is recorded as “F (mass modification of 31-69%)”.

On to `C=CC(=O)Nc1cc(-c2ccc3c(ccc4sc5c(c43)NC[C@@H](C)NC5=O)n2)ccc1Cl` [III-54, (R)—N-(2-chloro-5-(10-methyl-8-oxo-9,10,11,12-tetrahydro-8H-[1,4]diazepino[5′,6′:4,5]thieno[3,2-f]quinolin-3-yl)phenyl)acrylamide], for which the IC50 in assay [1] was < 100 nM. Also, on MK2 [2], the EC50 lay within 101 to 500 nM. Also, the “MK2 Mass Mod” value at MK2 [3] was “E (mass modification of ≥70%)”.

Consider `C=CC(=O)Nc1cc(-c2cc3c(ccc4c5c(n(C)c43)CCC5=O)cn2)cnc1OC` [II-e-21, N-(2-methoxy-5-(10-methyl-7-oxo-7,8,9,10-tetrahydrocyclopenta[4,5]pyrrolo[2,3-f]isoquinolin-2-yl)pyridin-3-yl)acrylamide], for which the concentration for half-maximal inhibition (IC50) in assay [1] was 501 to 999 nM. Also, the EC50 at MK2 [2] is > 1000 nM. Also, the “MK2 Mass Mod” value on MK2 [3] is “E (mass modification of ≥70%)”.

`C=CC(=O)Nc1cc(-c2cc3c(cn2)CCc2c-3[nH]c3c2C(=O)NCC3)cnc1OC` [II-4, N-(2-methoxy-5-(7-oxo-6,7,8,9,10,11-hexahydro-5H-pyrido[3′,4′:4,5]pyrrolo[2,3-f]isoquinolin-2-yl)pyridin-3-yl)acrylamide]: the IC50 in assay [1] is < 100 nM. In addition, on MK2 [2], the EC50 is < 100 nM. On MK2 [3], the “MK2 Mass Mod” value was “E (mass modification of ≥70%)”.

Take `C=CC(=O)Nc1cc(-c2ncc3c(n2)-c2[nH]c4c(c2CC3)C(=O)NCC4)cnc1OCCOC` [II-13, N-(2-(2-methoxyethoxy)-5-(7-oxo-6,7,8,9,10,11-hexahydro-5H-pyrido[3′,4′:4,5]pyrrolo[3,2-h]quinazolin-2-yl)pyridin-3-yl)acrylamide]: the IC50 in assay [1] was < 100 nM. For the same molecule, on MK2 [2], the EC50 was 101 to 500 nM. Also, on MK2 [3], the “MK2 Mass Mod” value is “E (mass modification of ≥70%)”.

`C=CC(=O)Nc1cc(NC(=O)c2ccc3cc4n(c3c2)C2(CCC2)CNC4=O)ccc1N1CCN(C)CC1` [Compound V-15, N-(3-acrylamido-4-(4-methylpiperazin-1-yl)phenyl)-1′-oxo-2′,3′-dihydro-1′H-spiro[cyclobutane-1,4′-pyrazino[1,2-a]indole]-7′-carboxamide]: the half-maximal inhibitory concentration (IC50) in assay [1] is < 100 nM. Moreover, the EC50 at MK2 [2] lay in the range of 101 to 500 nM. Besides, at MK2 [3], the “MK2 Mass Mod” value was “E (mass modification of ≥70%)”.

For `C=CC(=O)Nc1cc(-c2cc(-c3cc4c([nH]3)C3(CCCNC3)CNC4=O)ccn2)ccc1OCCOC` (stereo not drawn) [Compound I-3], in assay [1], the IC50 was < 100 nM. Besides, the EC50 on MK2 [2] is > 1000 nM. Moreover, on MK2 [3], the “MK2 Mass Mod” value is “E (mass modification of ≥70%)”.

With `C=CC(=O)Nc1cc(-c2cc3c(ccc4c5c([nH]c43)CCC5=O)cn2)ccc1Cl` [II-e-20, N-(2-chloro-5-(7-oxo-7,8,9,10-tetrahydrocyclopenta[4,5]pyrrolo[2,3-f]isoquinolin-2-yl)phenyl)acrylamide], the 50% inhibitory concentration (IC50) in assay [1] is < 100 nM. Further, at MK2 [2], the EC50 lay in the range of 101 to 500 nM. Further, the “MK2 Mass Mod” value on MK2 [3] was “E (mass modification of ≥70%)”.

Turning to `C=CC(=O)N1CC(C)Oc2ccc(NC(=O)c3ccc4cc5n(c4c3)C3(CCC3)CNC5=O)cc21` (racemic) [Compound V-50, N-(4-acryloyl-2-methyl-3,4-dihydro-2H-benzo[b][1,4]oxazin-6-yl)-1′-oxo-2′,3′-dihydro-1′H-spiro[cyclobutane-1,4′-pyrazino[1,2-a]indole]-7′-carboxamide (racemic)], the half-maximal inhibitory concentration (IC50) in assay [1] was < 100 nM. The EC50 on MK2 [2] lay within 101 to 500 nM. The “MK2 Mass Mod” value on MK2 [3] is on record as “E (mass modification of ≥70%)”.

For the molecule `C=CC(=O)Nc1cc(-c2ccc3c(ccc4sc5c(c43)NC[C@@H](C)NC5=O)n2)ccc1F` [III-13, (R)—N-(2-fluoro-5-(10-methyl-8-oxo-9,10,11,12-tetrahydro-8H-[1,4]diazepino[5′,6′:4,5]thieno[3,2-f]quinolin-3-yl)phenyl)acrylamide], in assay [1], the half-maximal inhibitory concentration (IC50) is < 100 nM. In addition, on MK2 [2], the EC50 was < 100 nM. Besides, the “MK2 Mass Mod” value at MK2 [3] was “F (mass modification of 31-69%)”.

Turning to `C=CS(=O)(=O)N1CCC[C@@H](NC(=O)c2ccc3sc4c(c3c2)NC[C@@H](C)NC4=O)C1` [III-44], in assay [1], the IC50 is < 100 nM. Moreover, the EC50 on MK2 [2] lay within 101 to 500 nM. Moreover, the “MK2 Mass Mod” value on MK2 [3] was “E (mass modification of ≥70%)”.

Turning to `C=CC(=O)Nc1cc(-c2ccc3c(ccc4sc5c(c43)NC[C@@H](C)NC5=O)n2)cnc1C` [III-1, (R)—N-(2-methyl-5-(10-methyl-8-oxo-9,10,11,12-tetrahydro-8H-[1,4]diazepino[5′,6′:4,5]thieno[3,2-f]quinolin-3-yl)pyridin-3-yl)acrylamide], the IC50 in assay [1] was < 100 nM. In addition, the EC50 at MK2 [2] is < 100 nM. For the same molecule, the “MK2 Mass Mod” value on MK2 [3] is given as “E (mass modification of ≥70%)”.
